Converted amounts (≈) assume the structure as drawn.
Tested on: T1, C. testosteroni S44
T1 construct: S44
Assay: organism not typed
Parameters: species or system Comamonas testosteroni S44; Broth dilution MIC in Mueller-Hinton broth, bacterial growth inhibition (CLSI)
Details: wild-type S44, MH broth
Method: Minimal inhibitory concentration profiles of the recombinant E. coli DH5α ([Miller and Mekalanos, 1988]) expressing czoA (pCT-Zori::czoA) and the isogenic strains of C. testosteroni S44 (S44, ΔczoR, ΔczoR-C, ΔiscR, and ΔiscR-C) were determined by the broth dilution method ([Clinical and Laboratory Standards Institute, 2014]) using 11 β-lactams. For the recombinant E. coli DH5α, two β-lactamase inhibitors, clavulanic acid, and tazobactam were also tested. E. coli DH5α (pCT-Zori) was used as a control. Clavulanic acid and tazobactam were generally fixed at a concentration of 2 and 4 μg/ml, respectively ([Girlich et al., 2007]; [Naas et al., 2007]; [Lamoureaux et al., 2013]; [Clinical and Laboratory Standards Institute, 2014]). Moreover, growth tendency of the isogenic strains of S44 under stress of 11 β-lactams with concentration below MIC was evaluated through OD600 values. Isogenic strains of C. testosteroni S44 in exponential growth phase were inoculated with each of 11 β-lactams in MH medium at 37°C and OD600 values were determined using a spectrophotometer after growth for 24 h. Bacterial strains, plasmids, and [compound left out] primers used in this study are shown in Supplementary Table S1. All strains were grown at 37°C in Luria-Bertani (LB, Oxoid, United Kingdom) broth unless otherwise stated. Mueller-Hinton (MH, Beijing Land Bridge Technology, China) broth dilution was used to determine the minimal inhibitory concentration (MIC) of antibiotics. Antibiotic disk (Hangzhou Microbial Reagent, China) diffusion tests were used for the antibiotic susceptibility assay (cephalexin and cefazolin). […] Then, the seed [compound left out] was used directly in relevant experiments.

SMILES	MIC
CC1(C)S[C@@H]2[C@H](NC(=O)[C@H](N)c3ccccc3)C(=O)N2[C@H]1C(=O)O [Ampicillin]	> 2050 µg/mL
CC1(C)S[C@@H]2[C@H](NC(=O)Cc3ccccc3)C(=O)N2[C@H]1C(=O)O [Benzylpenicillin]	> 2050 µg/mL
CC1=C(C(=O)O)N2C(=O)[C@@H](NC(=O)[C@H](N)c3ccccc3)[C@H]2SC1 [Cefalexin]	> 1020 µg/mL
Cc1nnc(SCC2=C(C(=O)O)N3C(=O)[C@@H](NC(=O)Cn4cnnn4)[C@H]3SC2)s1 [Cefazolin]	> 2050 µg/mL
CO/N=C(\C(=O)N[C@@H]1C(=O)N2C(C(=O)[O-])=C(C[N+]3(C)CCCC3)CS[C@H]12)c1csc(N)n1 [Cefepime]	> 512 µg/mL
CO[C@@]1(NC(=O)Cc2cccs2)C(=O)N2C(C(=O)O)=C(COC(N)=O)CS[C@@H]21 [Cefoxitin]	128 µg/mL (≈ 299 µM)
CC(C)(O/N=C(\C(=O)N[C@@H]1C(=O)N2C(C(=O)[O-])=C(C[n+]3ccccc3)CS[C@H]12)c1csc(N)n1)C(=O)O [Ceftazidime]	128 µg/mL (≈ 234 µM)
CO/N=C(\C(=O)N[C@@H]1C(=O)N2C(C(=O)O)=C(CSc3nc(=O)c(=O)[nH]n3C)CS[C@H]12)c1csc(N)n1 [Ceftriaxone]	> 1020 µg/mL
CO/N=C(\C(=O)N[C@@H]1C(=O)N2C(C(=O)O)=C(COC(N)=O)CS[C@H]12)c1ccco1 [Cefuroxime]	> 128 µg/mL
C[C@@H](O)[C@H]1C(=O)N2C(C(=O)O)=C(SCCNC=N)C[C@H]12 [Imipenem]	8 µg/mL (≈ 26.7 µM)
C[C@@H](O)[C@H]1C(=O)N2C(C(=O)O)=C(S[C@@H]3CN[C@H](C(=O)N(C)C)C3)[C@H](C)[C@H]12 [Meropenem]	1 µg/mL (≈ 2.61 µM)

Reference: paper PMC5744064, “Regulation of Class A β-Lactamase CzoA by CzoR and IscR in Comamonas testosteroni S44” (Frontiers in Microbiology, 2017)
